Drawing on BindingDB's records for PubMed 9584223 (University of Bath, 1998), this text covers Ki for six compounds.

As a reminder, the Ki is a measure of affinity in units of concentration, obtained from inhibition or displacement.

Molecules are shown by their SMILES. Where “and” joins values, the source holds several entries; their conditions need not be identical. Equal entries are not always repeated.

For this assay, the target named is Neuronal acetylcholine receptor subunit alpha-4 (Homo sapiens, UniProt P43681).
Chain of Neuronal acetylcholine receptor subunit alpha-4 (P43681 whole entry): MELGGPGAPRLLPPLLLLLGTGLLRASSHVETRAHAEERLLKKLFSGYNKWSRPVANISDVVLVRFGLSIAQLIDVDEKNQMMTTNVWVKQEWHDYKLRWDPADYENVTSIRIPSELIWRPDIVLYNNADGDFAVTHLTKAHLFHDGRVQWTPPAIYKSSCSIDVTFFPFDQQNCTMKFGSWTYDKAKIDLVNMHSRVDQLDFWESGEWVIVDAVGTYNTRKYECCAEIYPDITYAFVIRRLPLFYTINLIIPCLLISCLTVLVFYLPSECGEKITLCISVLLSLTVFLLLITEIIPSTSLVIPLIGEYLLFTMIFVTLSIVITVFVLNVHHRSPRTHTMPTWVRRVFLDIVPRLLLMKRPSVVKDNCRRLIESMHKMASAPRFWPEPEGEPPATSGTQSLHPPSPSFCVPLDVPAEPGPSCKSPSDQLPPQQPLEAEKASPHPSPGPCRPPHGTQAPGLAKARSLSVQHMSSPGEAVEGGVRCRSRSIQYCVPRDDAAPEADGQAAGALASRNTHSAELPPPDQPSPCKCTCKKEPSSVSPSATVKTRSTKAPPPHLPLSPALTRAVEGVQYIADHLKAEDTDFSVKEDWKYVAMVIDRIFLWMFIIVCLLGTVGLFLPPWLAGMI
Turning to `COc1cc2c3cc1Oc1cc(ccc1O)C[C@H]1c4c(cc(OC)c(O)c4Oc4ccc(cc4)C[C@@H]3N(C)CC2)CC[N+]1(C)C` [CAS_57-94-3], the Ki was 1000 nM and > 10000 nM.

Take `O=c1cccc2n1C[C@H]1CNC[C@H]2C1` [(1S,9R)-7,11-diazatricyclo[7.3.1.0~2,7~]trideca-2,4-dien-6-one]: the Ki was 17 nM and 3.3 nM.

Regarding `CCN1C[C@]2(COC(=O)c3ccccc3-n3c(O)cc(C)c3O)CC[C@H](OC)[C@]34C5C[C@@H]6[C@@H](OC)C[C@@](O)(C5[C@H]6OC)[C@@](O)(C13)[C@@H](OC)C24` (stereo partly drawn) [[(1S,4S,5R,6S,8R,9R,13S,16S,18S)-11-ethyl-8,9-dihydroxy-4,6,16,18-tetramethoxy-11-azahexacyclo[7.7.2.1^{2,5}.0^{1,10}.0^{3,8}.0^{13,17}]nonadecan-13-yl]methyl 2-[(3S)-3-methyl-2,5-dioxopyrrolidin-1-yl]benzoate], the Ki is 6100 nM and 1600 nM.

Consider `Cc1cc([C@@H]2CCCN2C)on1` [ABT-418], for which the Ki is 1.7 nM.

For `CNC1(C)C2CCC(C2)C1(C)C` (stereo unspecified) [Methyl-(2,3,3-trimethyl-bicyclo[2.2.1]hept-2-yl)-amine(Mecamylamine)], the Ki is over 10000 nM.

As for `C[N+](C)(C)CCCCCC[N+](C)(C)C` [Hexamethoniumdibromide], the Ki was over 10000 nM.
